Assay: Agonist activity at STING in STING knockout human THP-1 cells harboring IRF-inducible luciferase reporter construct assessed as increase in relative […] unit incubated for 12 hrs by Quanti-luc reagent based assay

## CC[C@H](CC(=O)c1cc2cc(OC)c(OC)cc2[se]1)C(=O)O
  EC50: > 100 µM
